# Data reported in patent publication US7067517B2 (priority 2001, dated 2006).
# Structures can show the parent of a compound that is named as a salt.
# Test system: not given
# Assay: not given
# Settings: not given
row,Structure (SMILES),melting point
1,Cc1c(Cc2ccc(F)cc2)c(=O)oc2cc(OC(=O)N(C)c3ccccc3)ccc12,185 to 186 °C
2,O=C(Oc1ccc(Oc2ccc(C(F)(F)F)cn2)cc1)N1CCN(c2ccccc2)CC1,117 °C
3,O=C(Oc1ccc(Oc2ccc(C(F)(F)F)cn2)cc1)N1CCN(c2ncccn2)CC1,120 to 121 °C
4,O=C(Oc1ccc(Oc2ccc(C(F)(F)F)cn2)cc1)N1CCN(c2ccc(Cl)c(Cl)c2)CC1,115 to 116 °C
5,O=C(Oc1ccc(Oc2ccc(C(F)(F)F)cn2)cc1)N1CCCN(Cc2ccc(-c3ccccc3)cc2)CC1,143 °C
6,O=C(Oc1ccc(Oc2ccc(C(F)(F)F)cn2)cc1)N1CCN(c2ncccc2C(F)(F)F)CC1,131 to 132 °C
7,Cc1cc(C)nc(Sc2ccc(OC(=O)N3CCN(Cc4cccc(F)c4)CC3)cc2)n1,117 to 118 °C
8,O=C(Oc1ccc(Oc2ccc(C(F)(F)F)cn2)cc1)N1CC2CC1CN2Cc1ccccc1 (centres unmarked),114 to 115 °C
9,O=C(Oc1ccc(Oc2ccc(C(F)(F)F)cn2)cc1)N1CCN(Cc2ccc3c(c2)OCO3)CC1 (as salt: hydrochloride),239 to 240 °C
10,O=C(Oc1ccc(Oc2ccc(C(F)(F)F)cn2)cc1)N1CCN(CCO)CC1 (as salt: hydrochloride),255 °C
11,O=C(CN1CCN(C(=O)Oc2ccc(Oc3ccc(C(F)(F)F)cn3)cc2)CC1)N1CCCC1 (as salt: hydrochloride),224 °C
12,O=C(Oc1ccc(Oc2ccc(C(F)(F)F)cn2)cc1)N1CCN(c2ccccn2)CC1 (as salt: hydrochloride),247 to 248 °C
13,CC(C)(C)c1ccc(CN2CCN(C(=O)Oc3ccc(Oc4ccc(C(F)(F)F)cn4)cc3)CC2)cc1 (as salt: hydrochloride),274 to 275 °C
14,O=C(Oc1ccc(Oc2ccc(C(F)(F)F)cn2)cc1)N1CCN(Cc2ccccn2)CC1 (as salt: hydrochloride),189 to 190 °C
15,O=C(Oc1ccc(Oc2ccc(C(F)(F)F)cc2)cc1)N1CCN(CCOCCO)CC1 (as salt: hydrochloride),176 to 178 °C
16,O=C(Oc1ccc(Oc2ccc(C(F)(F)F)cn2)cc1)N1CCN(Cc2c(F)cccc2Cl)CC1 (as salt: hydrochloride),204 to 205 °C
17,O=C(Oc1ccc(Oc2ccc(C(F)(F)F)cn2)cc1)N1CCN(Cc2cccc(F)c2)CC1 (as salt: hydrochloride),138 to 139 °C

# More lines, now with the values ahead:
row,melting point,Structure (SMILES)
1,63 to 67 °C,CN(C(=O)On1cccn1)c1ccccc1
2,146 to 147 °C,O=C(Oc1ccc(Oc2ccc(C(F)(F)F)cn2)cc1)N1CCN(c2ccc3c(c2)OCO3)CC1
3,160 to 161 °C,O=C(Oc1ccc(Oc2ccc(C(F)(F)F)cn2)cc1)N1CCN(c2cnccn2)CC1
4,98 to 99 °C,COc1ccc(N2CCN(C(=O)Oc3ccc(Oc4ccc(C(F)(F)F)cn4)cc3)CC2)c(OC)c1
5,229 to 231 °C,O=C(Oc1ccc(Oc2ccc(C(F)(F)F)cn2)cc1)N1CCN(Cc2ccccc2)CC1 (as salt: hydrochloride)
6,294 to 295 °C,O=C(Oc1ccc(Oc2ccc(C(F)(F)F)cn2)cc1)N1CCN(C2CCCC2)CC1 (as salt: hydrochloride)
7,221 to 222 °C,CCCCN1CCN(C(=O)Oc2ccc(Oc3ccc(C(F)(F)F)cn3)cc2)CC1 (as salt: hydrochloride)
8,240 to 243 °C,O=C(Oc1ccc(Oc2ccc(C(F)(F)F)cn2)cc1)N1CCN(Cc2ccc(F)cc2)CC1 (as salt: hydrochloride)
9,236 to 237 °C,O=C(Oc1ccc(Oc2ccc(C(F)(F)F)cn2)cc1)N1CCN(CCc2cccs2)CC1 (as salt: hydrochloride)
10,131 to 132 °C,O=C(Oc1ccc(Oc2ccc(C(F)(F)F)cn2)cc1)N1CCN(c2ccc(F)cc2)CC1 (as salt: hydrochloride)
11,290 to 291 °C,O=C(Oc1ccc(Oc2ccc(C(F)(F)F)cc2)cc1)N1CCN(C2CCCCC2)CC1 (as salt: hydrochloride)
12,250 to 252 °C,Cc1ccc(CN2CCN(C(=O)Oc3ccc(Oc4ccc(C(F)(F)F)cc4)cc3)CC2)cc1 (as salt: hydrochloride)
13,237 to 238 °C,COc1ccc(CN2CCN(C(=O)Oc3ccc(Oc4ccc(C(F)(F)F)cn4)cc3)CC2)cc1 (as salt: hydrochloride)
14,168 to 171 °C,COc1cccc(N2CCN(C(=O)Oc3ccc(Oc4ccc(C(F)(F)F)cc4)cc3)CC2)c1 (as salt: hydrochloride)
15,111 to 113 °C,O=C(Oc1ccc(Oc2ncc(C(F)(F)F)cc2Cl)cc1)N1CCN(Cc2ccccc2)CC1 (as salt: hydrochloride)
16,214 to 215 °C,COc1cccc(CN2CCN(C(=O)Oc3ccc(Oc4ccc(C(F)(F)F)cn4)cc3)CC2)c1 (as salt: hydrochloride)
17,268 to 271 °C (dec.),O=C(Oc1ccc(Oc2ccc(C(F)(F)F)cn2)cc1)N1CCN(CCc2ccncc2)CC1 (as salt: hydrochloride)

# Biological target: T1, Hormone-sensitive lipase (HSL) (Homo sapiens, UniProt Q05469)
# T1 sequence (Q05469 1-1076): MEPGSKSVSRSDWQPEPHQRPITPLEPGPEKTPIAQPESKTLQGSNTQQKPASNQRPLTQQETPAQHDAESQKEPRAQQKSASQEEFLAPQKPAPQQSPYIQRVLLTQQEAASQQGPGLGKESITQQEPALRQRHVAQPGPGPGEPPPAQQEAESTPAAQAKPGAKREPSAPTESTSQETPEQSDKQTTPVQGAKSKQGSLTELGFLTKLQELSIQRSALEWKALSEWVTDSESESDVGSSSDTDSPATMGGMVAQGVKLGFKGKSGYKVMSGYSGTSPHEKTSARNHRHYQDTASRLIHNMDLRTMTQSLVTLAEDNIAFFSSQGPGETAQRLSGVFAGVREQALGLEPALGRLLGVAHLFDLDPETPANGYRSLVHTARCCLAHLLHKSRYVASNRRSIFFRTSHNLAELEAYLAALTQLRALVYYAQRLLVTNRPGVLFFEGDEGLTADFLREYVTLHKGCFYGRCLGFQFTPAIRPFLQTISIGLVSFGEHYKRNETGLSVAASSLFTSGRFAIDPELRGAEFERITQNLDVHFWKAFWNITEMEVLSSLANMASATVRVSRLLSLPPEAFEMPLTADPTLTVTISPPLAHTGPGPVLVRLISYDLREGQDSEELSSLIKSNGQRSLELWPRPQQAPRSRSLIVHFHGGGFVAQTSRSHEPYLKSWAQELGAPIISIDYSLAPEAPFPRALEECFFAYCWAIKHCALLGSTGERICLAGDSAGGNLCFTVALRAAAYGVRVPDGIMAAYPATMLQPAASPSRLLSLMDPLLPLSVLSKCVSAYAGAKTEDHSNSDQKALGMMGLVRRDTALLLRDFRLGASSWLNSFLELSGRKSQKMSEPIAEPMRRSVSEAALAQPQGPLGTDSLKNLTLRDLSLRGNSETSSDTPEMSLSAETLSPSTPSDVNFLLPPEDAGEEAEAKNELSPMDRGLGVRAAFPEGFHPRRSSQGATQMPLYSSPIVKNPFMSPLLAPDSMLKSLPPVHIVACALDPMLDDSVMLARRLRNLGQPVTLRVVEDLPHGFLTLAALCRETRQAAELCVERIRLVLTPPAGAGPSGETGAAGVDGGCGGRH
# Assay: Test 2848.2: high-volume screening assay, para-nitrophenyl butyrate (p-NPB) substrate
# Type: biochemical
# Settings: UV-abs 405 nm, 20 min room temp, % Eff (% Inhibition)
# From the text: Materials. The Hormone-sensitive lipase was provided by Dr. Cecilia Holm, from Lund University Sweden or produced and purified by Novo Nordisk (NN) using the reagents and protocols used by Dr. Holm. The substrates used are: ^3H-labeled triolein (TO) from Amersham, Buckinghamshire, U.K. cat No. TRA191; 5–20 Ci/mmol dissolved in toluene, triolein (Sigma, Cat. No. T-1740), fluorochrome-labeled triacylglyceride (cis-octadec-9-enoic acid 2-[12-(7-nitrobenzo[1,2,5]oxadiazol-4-ylamino)dodecanoyloxy]-1-cis-octadec-9-enoyloxymethyl-ethyl ester) prepared by Novo Nordisk (NN) by conventional methods, and 1,3-(di[^3H]-stearin), 2-(PEG-Boitin)glycerol prepared in collaboration with Amersham Pharmacia Biotech, UK and described in WO 01/073442. Phosphatidyl choline (PC) and phosphatidyl inositol (PI) are from Sigma (St Luis Mo. cat. Nos. P-3556 and P-5954 respectively). All other reagents are of commercial grade and obtained from various commercial sources.
# 2848.2: This high-volume screening assay uses para-nitrophenyl butyrate (p-NPB) as substrate for HSL. HSL cleaves p-NPB and the reaction is monitored as an increase in the concentration of para-nitrophenol (p-NP). p-NP can be monitored as an increase in UV-absorbance at 405 nm. The reaction is carried out at room-temp. for 20 min. The action is not stopped, but instead UV-abs is measured at a fixed time (20 min.) Due to autohydrolysis of the substrate the reaction is read at t=0 min. too and t=20 min. and the increase in Abs is calculated as the difference between the two readings. When a compound that inhibits HSL is present, it results in a relative decrease in UV-absorbance. % Eff(% Inhibition)=(S−S0Eff)/(SmaxEff−S0Eff)×100 Where S=signal in UV-abs., S0Eff=assaybuffer alone, SmaxEff=Assaybuffer with the lipase inhibitor.
row,Structure (SMILES),Test 2848.2 HSL % Inhibition All
1,"Cc1ccc(NC(C=O)=NOC(=O)NC2CCCCC2)cc1 [Example 104, 2-Oxo-N-p-tolylacetamide O-(cyclohexylcarbamoyl)-oxime]",19.8%
2,"O=C(NC1CCCCC1)ON=C1c2ccccc2CCc2ccccc21 [Example 105, 10,11-Dihydro-dibenzo[a,d]cyclohepten-5-one O-cyclohexylcarbamoyl-oxime]",26.8%
3,"CCCCCCC(C=Cc1ccc(Cl)cc1)=NOC(=O)NC1CCCCC1 [Example 106, 1-(4-Chlorophenyl)-non-1-en-3-one O-cyclohexylcarbamoyl-oxime]",23.8%
4,"CC12CCC(CC1=NOC(=O)NC1CCCCC1)C2(C)C (centres unmarked) [Example 107, 1,7,7-Trimethyl-bicyclo[2.2.1]heptan-2-one O-cyclohexylcarbamoyl-oxime]",59.9%
5,"CC(C)CCC(C=Cc1ccc(Br)cc1)=NOC(=O)NC(C)C [Example 108, 1-(4-Bromophenyl)-6-methyl-hept-1-en-3-one O-isopropylcarbamoyl-oxime]",37.2%
6,"CCCCCCC(C=Cc1ccc(Cl)cc1)=NOC(=O)NC(C)C [Example 109, 1-(4-Chloro-phenyl)-non-1-en-3-one O-isopropylcarbamoyl-oxime]",15.9%
7,"CNC(=O)ON=Cc1c(Br)cnn1Cc1ccc(Cl)cc1 [Example 110, 4-Bromo-2-(4-chlorobenzyl)-2H-pyrazole-3-carbaldehyde O-methylcarbamoyl-oxime]",18.8%
8,"CCCNC(=O)ON=C(C=Cc1ccc(Br)cc1)CCC(C)C [Example 111, 1-(4-Bromophenyl)-6-methyl-hept-1-en-3-one O-propylcarbamoyl-oxime]",36.2%
9,"CN(C)C(=O)On1ccc2ccc(S(C)(=O)=O)cc21 [Example 114, Dimethylcarbamic acid 6-methanesulfonyl-indol-1-yl ester]",42.4%
10,"CN(C)C(=O)On1nnc2ccccc2c1=O [Example 116, Dimethylcarbamic acid 4-oxo-1,2,3-benzotriazin-3-yl ester]",23.5%
